# Data from US6407130B1, “Carboxamide-substituted benzimidazoles having tryptase-inhibiting activity” (Boehringer Ingelheim Pharma KG, priority 1999, dated 2002).
# Structures can show the parent of a compound that is named as a salt.
# Biological target: T1, rh beta tryptase (Homo sapiens, UniProt Q15661)
# T1 construct: purchased Promega
# Experiment: tryptase inhibition test (cleavage of N-p-tosyl-Gly-Pro-Lys-para-nitroaniline, p-nitroaniline measured at 405 nm)
# Type: biochemical
# Conditions: Tris HCl buffer pH 7.4 with calcium and heparin; substrate 0.6 mM; 5 minutes' pre-incubation, 5 minutes incubation at 37° C.
# Procedure: The compounds according to the invention are characterised by their tryptase-inhibiting activity. This ability to inhibit tryptase was investigated using the test described as follows. The measurement is carried out in Tris HCl buffer (100 mM), which additionally contains calcium (5 mM) and heparin ([…]), at pH 7.4. The standard used is rh beta tryptase which may be obtained commercially from Promega, for example. The substrate used is N-p-tosyl-Gly-Pro-Lys-para-nitroaniline in a concentration of 0.6 mM. The substrate is digested with tryptase to form p-nitroaniline which can be measured at 405 nm. Usually, an incubation period of 5 minutes and an incubation temperature of 37° C. are chosen. The enzyme activity used is 0.91 U/ml. The measurements are carried out in an Autoanalyser (Cobas Bio) made by Hofmann LaRoche. The potential inhibitory substances are used in concentrations of 10 μM in the screening, the inhibition of the tryptase being given in percent. The IC50 is determined at over 70% inhibition (concentration at which 50% of the enzyme activity is inhibited). After 5 minutes' pre-incubation of the potential inhibitory substances, the substrate is added to start the reaction, the formation of p-nitroaniline being taken as a measurement of the enzyme activity after 5 minutes, after testing the linearity.
# T1 sequence (Q15661 31-275): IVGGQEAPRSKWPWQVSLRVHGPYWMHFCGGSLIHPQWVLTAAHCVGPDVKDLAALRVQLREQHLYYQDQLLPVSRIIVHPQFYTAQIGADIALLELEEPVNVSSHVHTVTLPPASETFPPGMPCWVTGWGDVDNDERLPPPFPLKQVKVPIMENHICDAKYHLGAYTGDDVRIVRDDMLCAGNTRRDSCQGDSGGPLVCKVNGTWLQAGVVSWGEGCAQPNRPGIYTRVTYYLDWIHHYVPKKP
row,Compound,IC50
1,"Cn1c(CCc2ccc(C(=N)N)cc2)nc2cc(N(Cc3cccc4ccccc34)C(=O)CCC3CCN(C(c4ccccc4)c4ccccc4)CC3)ccc21 [Example 64, N-{2-[2-(4-Amidinophenyl)-ethyl]-1-methyl-benzimidazol-5-yl}-N-( - naphthylmethyl)-[3-(1-diphenylmethyl-piperidin-4-yl)-propionamide]-trihydrochloride]",25 nM
2,"Cn1c(CCc2ccc(C(=N)N)cc2)nc2cc(N(Cc3cccc4ccccc34)C(=O)CN3CCC(O)(Cc4ccccc4)CC3)ccc21 [Example 69, N-{2-[2-(4-Amidinophenyl)-ethyl]-1-methyl-benzimidazol-5-yl}-N-( - naphthylmethyl)-[2-(4-benzyl-4-hydroxypiperidin-1-yl)-acetamide]-dihydrochloride]",18 nM
3,"CN(C)CCCCC(=O)N(Cc1ccccc1)c1ccc2c(c1)nc(CCc1ccc(C(=N)N)cc1)n2C [Example 26, N-{2-[2-(4-Amidinophenyl)-ethyl]-1-methyl-benzimidazol-5-yl}-N-benzyl-[5-dimethylamino-pentanoic acid amide]-dihydrochloride]",53 nM
4,Cn1c(CCc2ccc(C(=N)N)cc2)nc2cc(N(Cc3cccc4ccccc34)C(=O)CN3CCC[C@H]3C(N)=O)ccc21 [Example 72],58.4 nM
5,"CC(C)CN(C(=O)CCc1ccc(C(=N)N)cc1)c1ccc2c(c1)nc(CCc1ccc(C(=N)N)cc1)n2C [Example 5, N-{2-[2-(4-Amidinophenyl)-ethyl]-1-methyl-benzimidazol-5-yl}-N-isobutyl-[3-(4-amidinophenyl)-propionamide]-dihydrochloride]",61 nM
6,"Cn1c(CCc2ccc(C(=N)N)cc2)nc2cc(N(Cc3cccc4ccccc34)C(=O)CNCc3ccc(C(=N)N)cc3)ccc21 [Example 22, N-{2-[2-(4-Amidinophenyl)-ethyl]-1-methyl-benzimidazol-5-yl}-N-( - naphthylmethyl)-[4-amidinobenzylamino-acetamide]-trihydrochloride]",10 nM
7,"CN(C)CCCCC(=O)N(Cc1cccc2ccccc12)c1ccc2c(c1)nc(CCc1ccc(C(=N)N)cc1)n2C [Example 25, N-{2-[2-(4-Amidinophenyl)-ethyl]-1-methyl-benzimidazol-5-yl}-N-( - naphthylmethyl)-[5-dimethylamino-pentanoic acid amide]-dihydrochloride]",33 nM
8,"Cn1c(CCc2ccc(C(=N)N)cc2)nc2cc(N(Cc3cccc4ccccc34)C(=O)CN3CCCCC3)ccc21 [Example 81, N-{2-[2-(4-Amidinophenyl)-ethyl]-1-methyl-benzimidazol-5-yl}-N-( - naphthylmethyl)-[2-(piperidin-1-yl)-acetamide]-dihydrochloride]",63.1 nM
9,"CN(CC(=O)N(Cc1cccc2ccccc12)c1ccc2c(c1)nc(CCc1ccc(C(=N)N)cc1)n2C)Cc1ccc(N2CCCC2)cc1 [Example 83, N-{2-[2-(4-Amidinophenyl)-ethyl]-1-methyl-benzimidazol-5-yl}-N-( - naphthylmethyl)-[2-(N-(4-pyrrolidin-1-ylbenzyl)-N-methylamino)-acetamide]-dihydrochloride]",7.6 nM
10,"Cn1c(CCc2ccc(C(=N)N)cc2)nc2cc(N(Cc3cccc4ccccc34)C(=O)CCCCN)ccc21 [Example 24, N-{2-[2-(4-Amidinophenyl)-ethyl]-1-methyl-benzimidazol-5-yl}-N-( - naphthylmethyl)-[5-amino-pentanoic acid amide]-dihydrochloride]",29 nM
11,"Cn1c(CCc2ccc(C(=N)N)cc2)nc2cc(N(Cc3cccc4ccccc34)C(=O)CCc3ccccn3)ccc21 [Example 68, N-{2-[2-(4-Amidinophenyl)-ethyl]-1-methyl-benzimidazol-5-yl}-N-( - naphthylmethyl)-[3-(pyridin-2-yl)-propionamide]-hydrochloride]",38 nM
12,"Cn1c(CCc2ccc(C(=N)N)cc2)nc2cc(N(Cc3cccc4ccccc34)C(=O)CNCc3ccccc3N)ccc21 [Example 51, N-{2-[2-(4-Amidinophenyl)-ethyl]-1-methyl-benzimidazol-5-yl}-N-( - naphthylmethyl)-[2-(2-aminobenzylamino)-acetamide]-trihydrochloride]",25 nM
13,"Cn1c(CCc2ccc(C(=N)N)cc2)nc2cc(N(Cc3cccc4ccccc34)C(=O)CO)ccc21 [Example 77, N-{2-[2-(4-Amidinophenyl)-ethyl]-1-methyl-benzimidazol-5-yl}-N-(- naphthylmethyl)-[3-hydroxy-acetamide]-hydrochloride]",110 nM
14,"CCOC(=O)c1ccc(CNCC(=O)N(Cc2cccc3ccccc23)c2ccc3c(c2)nc(CCc2ccc(C(=N)N)cc2)n3C)cc1 [Example 65, N-{2-[2-(4-Amidinophenyl)-ethyl]-1-methyl-benzimidazol-5-yl}-N-( - naphthylmethyl)-[2-(4-ethylcarboxylatbenzylamino)-acetamide]-dihydrochloride]",27 nM
15,"Cn1c(CCc2ccc(C(=N)N)cc2)nc2cc(N(Cc3ccncc3)C(=O)CNCc3ccc(N)cc3)ccc21 [Example 74, N-{2-[2-(4-Amidinophenyl)-ethyl]-1-methyl-benzimidazol-5-yl}-N-(-pyridin-4-ylmethyl)-[2-(4-aminobenzylamino)-acetamide]-dihydrochloride]",57.4 nM
16,"Cn1c(CCc2ccc(C(=N)N)cc2)nc2cc(NC(=O)C(N)Cc3ccc(C(=N)N)cc3)ccc21 (stereo not drawn) [Example 4, N-{2-[2-(4-Amidinophenyl)-ethyl]-1-methyl-benzimidazol-5-yl}-[2-amino-3-(p-amidinophenyl)-propionic Acid Amide]-trihydrochloride]",55 nM
17,N-{2-[2-(4-Amidinophenyl)-ethyl]-1- methyl-benzimidazol-5-yl}-N-( - naphthyl)-[4- dimethylaminobenzylamino- acetamide]-dihydrochloride [Example 21],11 nM
18,"Cn1c(CCc2ccc(C(=N)N)cc2)nc2cc(N(Cc3cccc4ccccc34)C(=O)CCCN)ccc21 [Example 20, N-{2-[2-(4-Amidinophenyl)-ethyl]-1-methyl-benzimidazol-5-yl}-N-- naphthylmethyl-[4-amino-butanoic acid amide]-dihydrochloride]",39 nM
19,"Cn1c(CCc2ccc(C(=N)N)cc2)nc2cc(N(Cc3ccccc3)C(=O)CCCCNC(=N)N)ccc21 [Example 34, N-{2-[2-(4-Amidinophenyl)-ethyl]-1-methyl-benzimidazol-5-yl}-N-benzyl-[5-guanidino-pentanoic acid amide]-dihydrochloride]",43 nM
20,"Cn1c(CCc2ccc(C(=N)N)cc2)nc2cc(N(Cc3ccccc3)C(=O)CCCCN)ccc21 [Example 32, N-{2-[2-(4-Amidinophenyl)-ethyl]-1-methyl-benzimidazol-5-yl}-N-benzyl-[5-amino-pentanoic acid amide]-dihydrochloride]",57 nM
21,"Cn1c(CCc2ccc(C(=N)N)cc2)nc2cc(N(Cc3ccc4ccccc4c3)C(=O)CCc3ccc(C(=N)N)cc3)ccc21 [Example 11, N-{2-[2-(4-Amidinophenyl)-ethyl]-1-methyl-benzimidazol-5-yl}-N-β-naphthylmethyl-[3-(4-amidinophenyl)-propionamide]-dihydrochloride]",15 nM
22,"Cn1c(CCc2ccc(C(=N)N)cc2)nc2cc(N(Cc3cccc4ccccc34)C(=O)CCCNC(=N)N)ccc21 [Example 30, N-{2-[2-(4-Amidinophenyl)-ethyl]-1-methyl-benzimidazol-5-yl}-N-( - naphthylmethyl)-[4-guanidino-butanoic acid amide]-dihydrochloride]",32 nM
23,"COc1ccccc1N1CCN(CC(=O)N(Cc2cccc3ccccc23)c2ccc3c(c2)nc(CCc2ccc(C(=N)N)cc2)n3C)CC1 [Example 58, N-{2-[2-(4-Amidinophenyl)-ethyl]-1-methyl-benzimidazol-5-yl}-N-( - naphthylmethyl)-[2-(1-(2-methoxyphenyl)-piperazin-4-yl)-acetamide]-dihydrochloride]",19 nM
24,"Cn1c(CCc2ccc(C(=N)N)cc2)nc2cc(N(Cc3cccc4ccccc34)C(=O)CNCc3ccc(N)cc3)ccc21 [Example 23, N-{2-[2-(4-Amidinophenyl)-ethyl]-1-methyl-benzimidazol-5-yl}-N-( - naphthylmethyl)-[4-aminobenzylamino-acetamide]-trihydrochloride]",7 nM
25,"Cn1c(CCc2ccc(C(=N)N)cc2)nc2cc(N(Cc3cccc4ccccc34)C(=O)CCCCNC(=N)N)ccc21 [Example 27, N-{2-[2-(4-Amidinophenyl)-ethyl]-1-methyl-benzimidazol-5-yl}-N-(- naphthylmethyl)-[5-guanidino-pentanoic acid amide]-dihydrochloride]",26 nM
26,"CCN(CC)c1ccc(CNCC(=O)N(Cc2cccc3ccccc23)c2ccc3c(c2)nc(CCc2ccc(C(=N)N)cc2)n3C)cc1 [Example 54, N-{2-[2-(4-Amidinophenyl)-ethyl]-1-methyl-benzimidazol-5-yl}-N-( - naphthylmethyl)-[2-(4-diethylaminobenzylamino)-acetamide]-dihydrochloride]",8.6 nM
27,"Cc1ccc(CNCC(=O)N(Cc2cccc3ccccc23)c2ccc3c(c2)nc(CCc2ccc(C(=N)N)cc2)n3C)cc1 [Example 60, N-{2-[2-(4-Amidinophenyl)-ethyl]-1-methyl-benzimidazol-5-yl}-N-(- naphthylmethyl)-[2-(4-methylbenzylamino)-acetamide]-dihydrochloride]",25 nM
